In US9963448B2, “Bicyclic inhibitors of PAD4” (Padlock Therapeutics, Inc., priority 2015, dated 2018):
Counter-ions that a name gives are not always drawn. Like-named read-outs stand apart in the source and are kept apart here.

Legend:
[1] = target: hPAD4 (Homo sapiens, UniProt Q9UM07); assay: hPAD4 RFMS (RapidFire mass spectrometry) PAD4 inhibition assay; type: biochemical; conditions: hPAD4 enzyme, RFMS readout;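 on hPAD4 RFMS pIC50: grade E means pIC50 at most 4 and F means pIC50 4.0 to 5.0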
Protocol: (§1) Compounds of the present invention were assayed as inhibitors of PAD4 using the assay protocol described below.
(§2) Compound stock solutions were stored at RT. […] Final assay conditions were as follows:
(§3) Total incubation time: 65 mins at 37° C.
(§4) Stop solution: 40 μl 5% TCA in ACN
(§5) The compound numbers correspond to the compound numbers in Table 1. […] The term pIC50=−log(IC50). […] “NA” stands for “not assayed.”

[2] = target: mPAD4 (Mus musculus, UniProt Q9Z183); assay: mPAD4 RFMS PAD4 inhibition assay; type: biochemical; conditions: mPAD4, RFMS readout;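 on mPAD4 RFMS pIC50: grade E means pIC50 at most 4 and F means pIC50 4.0 to 5.0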
Chain of mPAD4 (Q9Z183 whole entry): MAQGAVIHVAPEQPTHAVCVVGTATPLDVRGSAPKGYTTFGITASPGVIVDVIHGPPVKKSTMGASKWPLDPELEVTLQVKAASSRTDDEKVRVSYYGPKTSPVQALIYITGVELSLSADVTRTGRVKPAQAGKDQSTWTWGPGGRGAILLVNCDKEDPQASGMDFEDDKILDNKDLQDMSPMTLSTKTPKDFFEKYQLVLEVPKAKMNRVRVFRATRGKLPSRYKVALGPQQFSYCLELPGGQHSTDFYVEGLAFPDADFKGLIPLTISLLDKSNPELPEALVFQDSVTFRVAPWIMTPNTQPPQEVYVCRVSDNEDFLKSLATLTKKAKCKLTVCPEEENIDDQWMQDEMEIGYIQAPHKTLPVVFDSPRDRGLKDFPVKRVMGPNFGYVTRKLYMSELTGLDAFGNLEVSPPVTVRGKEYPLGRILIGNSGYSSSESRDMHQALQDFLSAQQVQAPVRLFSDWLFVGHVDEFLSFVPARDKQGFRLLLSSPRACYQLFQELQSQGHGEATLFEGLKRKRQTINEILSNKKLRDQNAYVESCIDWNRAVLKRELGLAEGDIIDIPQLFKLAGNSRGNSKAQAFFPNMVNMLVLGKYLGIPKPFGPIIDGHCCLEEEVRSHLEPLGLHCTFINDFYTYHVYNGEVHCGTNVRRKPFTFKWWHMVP
Protocol: as §1, §2, §3, §4, §5

[3] = pIC50=−log(IC50), read-out: hPAD4 RFMS pIC50 (converted)
[4] = pIC50=−log(IC50), read-out: mPAD4 RFMS pIC50 (converted)

Chain of hPAD4 (Q9UM07 whole entry): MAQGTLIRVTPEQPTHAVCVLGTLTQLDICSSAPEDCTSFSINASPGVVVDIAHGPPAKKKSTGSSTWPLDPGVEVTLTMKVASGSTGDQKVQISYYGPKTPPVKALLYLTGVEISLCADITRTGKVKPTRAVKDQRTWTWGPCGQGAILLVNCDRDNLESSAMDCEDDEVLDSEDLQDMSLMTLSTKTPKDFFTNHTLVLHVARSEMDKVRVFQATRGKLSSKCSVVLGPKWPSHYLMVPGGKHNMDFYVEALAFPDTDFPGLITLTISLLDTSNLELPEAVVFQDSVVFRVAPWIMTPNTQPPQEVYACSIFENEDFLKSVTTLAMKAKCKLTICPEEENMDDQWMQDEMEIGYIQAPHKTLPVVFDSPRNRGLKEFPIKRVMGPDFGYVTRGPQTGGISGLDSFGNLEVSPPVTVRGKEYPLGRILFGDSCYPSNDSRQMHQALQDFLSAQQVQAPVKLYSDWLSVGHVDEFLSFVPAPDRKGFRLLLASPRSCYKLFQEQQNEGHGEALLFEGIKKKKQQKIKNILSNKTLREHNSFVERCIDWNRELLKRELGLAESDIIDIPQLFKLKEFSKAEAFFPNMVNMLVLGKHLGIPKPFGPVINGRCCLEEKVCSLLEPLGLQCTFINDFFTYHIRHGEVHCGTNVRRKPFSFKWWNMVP

| SMILES | IC50 [1, 3] [µM] | IC50 ([1]; read-out: hPAD4 RFMS IC50) [µM] | IC50 [2, 4] [µM] | IC50 ([2]; read-out: mPAD4 RFMS IC50) [µM] | hPAD4 RFMS pIC50 ([1]; pIC50=−log(IC50)) | mPAD4 RFMS pIC50 ([2]; pIC50=−log(IC50)) |
| --- | --- | --- | --- | --- | --- | --- |
| COc1cc(C(=O)N2CC3CC(N)C2C3)cc2nc(-c3cc4cccnc4n3CC3CC3)n(C)c12 (racemic) [Compound I-99] | > 100 | > 10 | > 100 | > 10 |  |  |
| CCn1c(-c2nc3cc(C(=O)N4CC5CCC4C5N)cc(OC)c3n2C)cc2ccc(OC)nc21 (racemic) [Compound I-136] | < 1 | < 1 | < 1 | < 1 |  |  |
| CCn1c(-c2nc3cc(C(=O)N4C[C@H]5CC[C@@H]4[C@@H]5N)cc(OC)c3n2C)cc2cccnc21 (racemic) [Compound I-143] | < 1 | < 1 | < 1 | < 1 |  |  |
| COc1cc(C(=O)N2C[C@H](N)CC[C@H]2CO)cc2nc(-c3cc4cccnc4n3CC3CC3)n(C)c12 (racemic) [Compound I-220, Rac-[(2R,5S)-5-amino-1-{2-[1-(cyclopropylmethyl)-1H-pyrrolo[2,3-b]pyridin-2-yl]-7-methoxy-1-methyl-1H-1,3-benzodiazole-5-carbonyl}piperidin-2-yl]methanol] |  | > 10 |  | > 10 | E/F | E/F |
| COc1cc(C(=O)N2C[C@H](N)CC[C@@H]2CO)cc2nc(-c3cc4cccnc4n3CC3CC3)n(C)c12 (racemic) [Compound I-221, rac-[(2R,5R)-5-amino-1-{2-[1-(cyclopropylmethyl)-1H-pyrrolo[2,3-b]pyridin-2-yl]-7-methoxy-1-methyl-1H-1,3-benzodiazole-5-carbonyl}piperidin-2-yl]methanol] | 10 to 100 | > 10 | 1 to 10 | 1 to 5 |  |  |
| Cn1c(-c2cc3cccnc3n2CC2CC2)nc2cc(C(=O)N3CC[C@H]4CCN[C@H]4C3)cc(OC(F)F)c21 (single isomer, unassigned) [Compound I-24, hydrochloride] | 10 to 100 | > 10 | 10 to 100 | > 10 |  |  |
| Cn1c(-c2cc3cccnc3n2CC2CC2)nc2cc(C(=O)N3CC[C@H]4CCN[C@H]4C3)cc(OC(F)F)c21 (single isomer, unassigned) [Compound I-25, hydrochloride] | 1 to 10 | 1 to 5 | 1 to 10 | 1 to 5 |  |  |
| CO[C@@H]1CCN(C(=O)c2ccc3c(c2)nc(-c2cc4cccnc4n2CC2CC2)n3C)C[C@@H]1N (single isomer, unassigned) [Compound I-64] | 1 to 10 | 1 to 5 | 1 to 10 | 5 to 10 |  |  |
| CO[C@H]1CCN(C(=O)c2ccc3c(c2)nc(-c2cc4cccnc4n2CC2CC2)n3C)C[C@H]1N (single isomer, unassigned) [Compound I-65] | 10 to 100 | > 10 | 10 to 100 | > 10 |  |  |
| COc1cc(C(=O)N2C[C@H](N)CC[C@H]2CO)cc2nc(-c3cc4cccnc4n3CC3CC3)n(C)c12 (single isomer, unassigned) [Compound I-226] |  | > 10 |  | > 10 | E/F | E/F |
| COc1cc(C(=O)N2C[C@@H](N)CC[C@@H]2CO)cc2nc(-c3cc4cccnc4n3CC3CC3)n(C)c12 (single isomer, unassigned) [Compound I-227] | 10 to 100 | > 10 |  | > 10 |  | E/F |
| COc1cc(C(=O)N2C[C@H](N)CC[C@@H]2CO)cc2nc(-c3cc4cccnc4n3CC3CC3)n(C)c12 (single isomer, unassigned) [Compound I-228] | 1 to 10 | 5 to 10 | 1 to 10 | 1 to 5 |  |  |
| COc1cc(C(=O)N2C[C@@H](N)CC[C@H]2CO)cc2nc(-c3cc4cccnc4n3CC3CC3)n(C)c12 (single isomer, unassigned) [Compound I-229] | 10 to 100 | > 10 | 1 to 10 | 5 to 10 |  |  |
| Cn1c(-c2cc3cncnc3n2CC2CC2)nc2cc(C(=O)N3CCC4CCNC4C3)ccc21 (centres unmarked) [Compound I-9, 2-[7-(Cyclopropylmethyl)-7H-pyrrolo[2,3-d]pyrimidin-6-yl]-1-methyl-5-{octahydro-1H-pyrrolo[2,3-c]pyridine-6-carbonyl}-1H-1,3-benzodiazole] | 1 to 10 | 5 to 10 | 10 to 100 | > 10 |  |  |
| Cn1c(-c2cc3cccnc3n2CC2CC2)nc2cc(C(=O)N3CC[C@H]4CCN[C@H]4C3)ccc21 [Compound I-10] | 1 to 10 | 1 to 5 | 1 to 10 | 5 to 10 |  |  |
| COc1cc(C(=O)N2CC[C@@H]3CCN[C@@H]3C2)cc2nc(-c3cc4cccnc4n3CC3CC3)n(C)c12 [Compound I-11] | < 1 | < 1 | < 1 | < 1 |  |  |
| COc1cc(C(=O)N2CC[C@H]3CCN[C@H]3C2)cc2nc(-c3cc4cncnc4n3CC3CC3)n(C)c12 [Compound I-12, 5-[(3aR,7aR)-octahydro-1H-pyrrolo[2,3-c]pyridine-6-carbonyl]-2-[7-(cyclopropylmethyl)-7H-pyrrolo[2,3-d]pyrimidin-6-yl]-7-methoxy-1-methyl-1H-1,3-benzodiazole] | 1 to 10 | 1 to 5 | 10 to 100 | > 10 |  |  |
| COc1cc(C(=O)N2CC[C@H]3CCN[C@H]3C2)cc2nc(-c3cc4cccnc4n3CC3CC3)n(C)c12 [Compound I-17] | 10 to 100 | > 10 | 10 to 100 | > 10 |  |  |

| SMILES | IC50 [1, 3] [µM] | IC50 ([1]; read-out: hPAD4 RFMS IC50) [µM] | IC50 [2, 4] [µM] | IC50 ([2]; read-out: mPAD4 RFMS IC50) [µM] | hPAD4 RFMS pIC50 ([1]; pIC50=−log(IC50)) | mPAD4 RFMS pIC50 ([2]; pIC50=−log(IC50)) |
| --- | --- | --- | --- | --- | --- | --- |
| Cn1c(-c2cc3cccnc3n2CC2CC2)nc2cc(C(=O)N3CC[C@@H]4CCN[C@@H]4C3)ccc21 [Compound I-18] | 10 to 100 | > 10 | 10 to 100 | > 10 |  |  |
| CCn1c(-c2cc3cccnc3n2CC2CC2)nc2cc(C(=O)N3CC[C@H]4CCN[C@H]4C3)cc(OC)c21 [Compound I-22] | 10 to 100 | > 10 | 10 to 100 | > 10 |  |  |
| CCn1c(-c2cc3cccnc3n2CC2CC2)nc2cc(C(=O)N3CC[C@@H]4CCN[C@@H]4C3)cc(OC)c21 [Compound I-23] | < 1 | < 1 | 1 to 10 | 1 to 5 |  |  |
| COc1cc(C(=O)N2CC3(CCCNC3)C2)cc2nc(-c3cc4cccnc4n3CC3CC3)n(C)c12 [Compound I-27] | 1 to 10 | 1 to 5 | 1 to 10 | 1 to 5 |  |  |
| COc1cc(C(=O)N2CC[C@H]3OCCN[C@H]3C2)cc2nc(-c3cc4cccnc4n3CC3CC3)n(C)c12 [Compound I-28] | < 1 | < 1 | < 1 | < 1 |  |  |
| COc1cc(C(=O)N2CC[C@@H]3OCCN[C@@H]3C2)cc2nc(-c3cc4cccnc4n3CC3CC3)n(C)c12 [Compound I-29] | 10 to 100 | 5 to 10 | 1 to 10 | 5 to 10 |  |  |
| COc1cc(C(=O)N2CC3CCC2[C@@H]3N)cc2nc(-c3cc4cccnc4n3CC3CC3)n(C)c12 (some centres unmarked) [Compound I-30] | 10 to 100 | > 10 | 10 to 100 | > 10 |  |  |
| COc1cc(C(=O)N2CC3CCC2[C@H]3N)cc2nc(-c3cc4cccnc4n3CC3CC3)n(C)c12 (some centres unmarked) [Compound I-31] | < 1 | < 1 | < 1 | < 1 |  |  |
| COc1cc(C(=O)N2CC3(CNCCO3)C2)cc2nc(-c3cc4cccnc4n3CC3CC3)n(C)c12 [Compound I-32] | > 100 | > 10 | 10 to 100 | > 10 |  |  |
| COc1ccc2cc(-c3nc4cc(C(=O)N5CCC[C@@H](N)C5)cc(OC)c4n3C)n(CC3CC3)c2n1 [Compound I-33, (3R)-1-{2-[1-(cyclopropylmethyl)-6-methoxy-1H-pyrrolo[2,3-b]pyridin-2-yl]-7-methoxy-1-methyl-1H-1,3-benzodiazole-5-carbonyl}piperidin-3-amine] | < 1 | < 1 | < 1 | < 1 |  |  |
| COc1cc(C(=O)N2C[C@@H](N)C[C@H](F)C2)cc2nc(-c3cc4cccnc4n3CC3CC3)n(C)c12 [Compound I-34] | < 1 | < 1 | < 1 | < 1 |  |  |
| COc1cc(C(=O)N2C[C@H](N)C[C@@H](F)C2)cc2nc(-c3cc4cccnc4n3CC3CC3)n(C)c12 [Compound I-35] | < 1 | < 1 | < 1 | < 1 |  |  |
| COc1cc(C(=O)N2C[C@@H](N)CC[C@H]2C)cc2nc(-c3cc4cccnc4n3CC3CC3)n(C)c12 [Compound I-36] | < 1 | < 1 | < 1 | < 1 |  |  |
| Cn1c(-c2cc3cccnc3n2CC2CC2)nc2cc(C(=O)N3CCCC4NCCC43)ccc21 (centres unmarked) [Compound I-52] | 10 to 100 | > 10 | 10 to 100 | > 10 |  |  |
| Cn1c(-c2cc3cccnc3n2CC2CC2)nc2cc(C(=O)N3CC[C@H](F)[C@@H](N)C3)ccc21 [Compound I-54] | 1 to 10 | 5 to 10 | 10 to 100 | > 10 |  |  |
| Cn1c(-c2cc3cccnc3n2CC2CC2)nc2cc(C(=O)N3CC[C@@H](F)[C@H](N)C3)ccc21 [Compound I-55] | 10 to 100 | > 10 | 10 to 100 | > 10 |  |  |
| COc1cc(C(=O)N2CCC(F)C(N)C2)cc2nc(-c3cc4cccnc4n3CC3CC3)n(C)c12 (centres unmarked) [Compound I-56] | 1 to 10 | 1 to 5 | 1 to 10 | 1 to 5 |  |  |
